This note sets out measurements from PubChem BioAssay AID1189 (EPA DSSTox, 2008).

Activity calls are given as the source filed them.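 Rule for the calls: active = a tumor-causing dose value with its tumor site reported for any sex and species group of a rodent or other animal cancer study; inconclusive = only studies judged inadequate by the national testing program; inactive = tested in at least one study, none positive.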

This series is described as follows: DSSTox (CPDBAS) Carcinogenic Potency Database Summary SingleCellCall Results. The note with it: animal chronic carcinogenicity bioassays, CPDB summary call. The gist of the method: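 Categorical carcinogenicity call compiled from published chronic rodent and other animal cancer bioassays; based on the most positive result across experiments for each sex-species, assigned on minimal evidence for or against activity.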
Take `CC1(C)[C@@H](OC2O[C@H](C(=O)O)[C@@H](O)[C@H](O)[C@H]2O[C@H]2O[C@H](C(=O)O)[C@@H](O)[C@H](O)[C@H]2O)CC[C@]2(C)[C@H]3C(=O)C=C4[C@@H]5C[C@@](C)(C(=O)O)CC[C@]5(C)CC[C@@]4(C)[C@]3(C)CC[C@@H]12` (stereo partly specified): the result was inactive.

Take `C=C(C)[C@H]1CC=C(C)C(=O)C1`: the outcome was “inactive; active”. Under `CC(N)=S` stands “active”.

Consider `CC(=O)NNC(C)=O`, for which the result was inactive.

As to `COc1cc(OC)c2c3c(c(=O)oc2c1)CCC3=O`, the result was inactive. The value for `O=C1Nc2ccc(Cl)cc2C(c2ccccc2)=NC1O` (stereo unspecified) was “active”. The value for `CN=C(N)N` was “inactive; active”. Consider `NS(=O)(=O)c1cc(C(=O)O)c(NCc2ccco2)cc1Cl`, for which the outcome is “active; inactive”. The value for `C#C[C@]1(O)CC[C@H]2[C@@H]3CCc4cc(OC)ccc4[C@H]3CC[C@@]21C` was “inactive”; that for `ClCCCl` was “active”.

With `OC[C@@H](O)[C@@H](O)[C@H](O)[C@H](O)CO`, the outcome was inactive. The value for `CN(C)C(=O)NC1CC2CC1C1CCCC21` (stereo unspecified) was “inactive”. As to `O=NN1CCOC1=O`, the outcome was “active; inactive”. Regarding `ClC1=C(Cl)[C@]2(Cl)[C@@H]3[C@H]4C[C@H]([C@@H]5O[C@H]45)[C@@H]3[C@@]1(Cl)C2(Cl)Cl`, the outcome was inactive. Regarding `CC(C)(c1ccc(O)cc1)c1ccc(O)cc1`, the outcome is “inactive; active”. Under `Cc1ccccc1` stands “active”. The value for `O=CNNc1nc(-c2ccco2)cs1` was “inactive”; that for `C=CCN(CC(C)=O)N=O` was “active”. Under `Cc1c(COC(=O)C2C(/C=C(\Cl)C(F)(F)F)C2(C)C)cccc1-c1ccccc1` (stereo unspecified) stands “inactive; active”; under `FC(F)OC(Cl)C(F)(F)F` (stereo unspecified), “inactive”. As to `CC(=O)NN`, the outcome was active. Under `CCN(C=O)CC` stands “inactive; active”; under `[S-]c1nc2ccccc2s1.[S-]c1nc2ccccc2s1.[Zn+2]`, “inactive; active”. The value for `CNC(=O)O/N=C(\SC)C(=O)N(C)C` was “inactive”; that for `Cc1[nH]cnc1CSCCN=C(NC#N)N(C)N=O` was “inactive; active”. Take `CC(N)Cc1ccccc1` (stereo unspecified): the outcome was inactive. As to `O=[N+]([O-])c1cc([N+](=O)[O-])c(Cl)c(Cl)c1Cl`, the result was inactive. On to `CN=C(NC#N)NCCSCc1nc[nH]c1C`, for which the outcome was “inactive; active”.

With `CCCCCC(/C=C/C=C\CCCCCCCC(=O)OC)OO` (stereo unspecified), the result was inactive. The value for `C/C=C/c1ccc(OC)cc1` was “inactive”; that for `CN1CCCC1=O` was “active”. Under `Cc1cnc(NC(=O)C2=C(O)c3ccccc3S(=O)(=O)N2C)s1` stands “inactive”. Under `CCCCCC` stands “active”; under `O=C(c1ccccc1)C(O)c1ccccc1` (stereo unspecified), “inactive; active”; under `Nc1c(Br)cc(Br)c2c1C(=O)c1ccccc1C2=O`, “active”.

Turning to `CN(C)c1ccc(Cc2ccc(N(C)C)cc2)cc1`, the outcome was active. The value for `O=c1[nH]cc(F)c(=O)[nH]1` was “active; inactive”; that for `O.O.O.O.O.O.O.O.O=S(=O)([O-])[O-].O=S(=O)([O-])[O-].O=S(=O)([O-])[O-].[Cd+2].[Cd+2].[Cd+2]` was “inactive”. The value for `CC(C)Oc1ccc(Nc2ccccc2)cc1` was “inactive”.

As for `COC(=O)C(c1ccccc1)C1CCCCN1` (stereo unspecified), the result was active. The value for `O.O.O.O.O.O.O=S(=O)([O-])[O-].[Ni+2]` was “inactive”; that for `NCCS(=O)(=O)O` was “inactive; active”; that for `C1CCC(C(CC2CCCCN2)C2CCCCC2)CC1` (stereo unspecified) was “inactive”. Under `CN(C#N)N=O` stands “active”. The value for `O=C(O)CC[N+](=O)[O-]` was “inactive; active”; that for `C[C@H]1C(=O)O[C@@H]2CCN3CC=C(COC(=O)[C@](C)(O)[C@]1(C)O)[C@H]23` was “active”; that for `CN(C)CCN(Cc1ccsc1)c1ccccn1` was “inactive; active”. Turning to `COc1cc(OC)c2c3c(c(=O)oc2c1)CCC3`, the result was inactive. The value for `CC(C)C=O` was “inactive”; that for `CC(=O)CN(N=O)C(=O)NCCCl` was “active”. Take `NC1CCCCC1`: the result was inactive.

With `Oc1ccccc1-c1ccccc1`, the outcome was active. Under `CC(C)(C)NC[C@H](O)COc1cccc2c1CCCC2=O` stands “inactive”. For the compound `ClC=C(Cl)Cl`, the outcome was “active; inactive”. Regarding `C=C(C)[C@H]1CC=C(C)CC1`, the result was active. For `c1ccc(OCC2CO2)cc1` (stereo unspecified), the outcome was active. Under `CCC(C)c1cc([N+](=O)[O-])cc([N+](=O)[O-])c1O` (stereo unspecified) stands “inactive”; under `Cc1ccc(Cl)cc1N`, “active”; under `O=C1CN=C(c2ccccc2)c2cc(Cl)ccc2N1CC1CC1`, “inactive”. With `Cc1c(N(C)CS(=O)(=O)O)c(=O)n(-c2ccccc2)n1C`, the result was active. `Clc1cc2c(c(Cl)c1Cl)Oc1c(cc(Cl)c(Cl)c1Cl)O2`: the result was active.

For `O=C([O-])C(=O)O.O=C([O-])C(=O)O.[K+].[K+].[O]=[Ti]`, the outcome was “inactive; active”.

For the compound `COc1cc(-c2ccc(N=Nc3c(S(=O)(=O)O)cc4cc(S(=O)(=O)O)cc(N)c4c3O)c(OC)c2)ccc1N=Nc1c(S(=O)(=O)O)cc2cc(S(=O)(=O)O)cc(N)c2c1O`, the result was active. The value for `C=CCOC(=O)c1ccccc1C(=O)OCC=C` was “inactive”.

Take `COC(=O)NN`: the outcome was “inactive; active”. Under `CCN(CC)C(=O)c1cccc(C)c1` stands “inactive”; under `O=NN1CCCC1c1cccnc1` (stereo unspecified), “active”; under `COc1cc(CNC(=O)CCCC/C=C/C(C)C)ccc1O`, “active”. Under `CC(N)=O` stands “active; inactive”. The value for `COc1ccc2c(c1)c(CC(=O)O)c(C)n2C(=O)c1ccc(Cl)cc1` was “active; inactive”; that for `Cc1ccc(O)c(O)c1` was “active; inactive”; that for `[Cl-].[Cl-].[Cl-].[Fe+3]` was “inactive”. Consider `CN(N=O)c1ccc(F)cc1`, for which the outcome was active. Under `Cc1cccc(C)c1NC1=NCCCS1` stands “inactive”; under `CC(=O)C(N=Nc1ccc(-c2ccc(N=NC(C(C)=O)C(=O)Nc3ccccc3)c(Cl)c2)cc1Cl)C(=O)Nc1ccccc1` (stereo unspecified), “inactive”; under `O=S1OCC2C(CO1)C1(Cl)C(Cl)=C(Cl)C2(Cl)C1(Cl)Cl` (stereo unspecified), “inactive; active”. The value for `C=CC(N)=O` was “active; inactive”. The value for `CN(N=O)C(=O)c1ccccc1C(=O)N(C)N=O` was “inactive”; that for `O=C1C=CC(=O)C=C1` was “active”; that for `CC1(C)[C@@H](O)CC[C@]2(C)[C@H]3C(=O)C=C4[C@@H]5C[C@@](C)(C(=O)O)CC[C@]5(C)CC[C@@]4(C)[C@]3(C)CC[C@@H]12` was “inactive”. For `O=C1C2CC=CCC2C(=O)N1SC(Cl)(Cl)Cl` (stereo unspecified), the result was active.

Take `CC(C)NCC(O)c1ccc(NS(C)(=O)=O)cc1` (stereo unspecified): the outcome was inactive. Under `O=c1c(O)c(-c2ccc(O)cc2)oc2cc(O)cc(O)c12` stands “inactive”; under `O=C1c2ccccc2C(=O)c2ccccc21`, “inactive”; under `NCCCCCC(=O)O`, “inactive; active”. Under `C=CC` stands “inactive”; under `O=C(Nc1cccc2c(=O)cc(-c3nn[nH]n3)oc12)c1ccc(OCCCCc2ccccc2)cc1`, “inactive; active”. In the case of `O=NN1CN2CN(C1)CN(N=O)C2`, the result was inactive.

In the case of `O=[N+]([O-])c1c(Cl)c(Cl)c(Cl)c(Cl)c1Cl`, the result was active. Turning to `N#Cc1ccc(C2CCCc3cncn32)cc1` (stereo unspecified), the outcome was “inactive; active”.

Turning to `ClCC(Cl)CCl`, the outcome is “active; inactive”. The value for `S=C(S)NCCNC(=S)S` was “inactive”; that for `Cc1cc(C)nc(NS(=O)(=O)c2ccc(N)cc2)n1` was “active”; that for `C/C=C(/C)C(=O)O[C@H]1CCN2CC=C(COC(=O)[C@](O)([C@H](C)OC)C(C)(C)O)[C@H]12` was “active”. The value for `C[C@](N)(Cc1ccc(O)c(O)c1)C(=O)O` was “inactive”; that for `O=P(O)(O)O` was “inactive; active”; that for `Cc1cc(C)c(N)cc1C` was “active”. The value for `C[C@H]1CCCCN1N=O` was “active”; that for `Nc1ccc(-c2ccccc2)cc1O` was “inactive”; that for `FCC(F)(F)F` was “active”. Consider `Cn1c(=O)c2c(ncn2C)n(C)c1=O`, for which the outcome was inactive.

Take `Cc1ccc(C)c(OCCCC(C)(C)C(=O)O)c1`: the outcome is “active; inactive”. The value for `S=C=NCc1ccccc1` was “inactive”; that for `Nc1ccc2cc3ccc(N)cc3nc2c1` was “inactive”. As to `S=c1[nH]c2ccccc2s1`, the outcome was active.

`CN1C2CC[C@@H]1CC(NC(=O)c1cc(Cl)cc3c1OC(C)(C)C3)C2` (stereo partly specified): the outcome was inactive. Under `C=Cc1cccc(C)c1` stands “inactive; active”; under `CCc1ccccc1`, “active”. The value for `Oc1cccc2cccnc12` was “inactive”. In the case of `Nc1ccc(N=Nc2ccc(N)cc2)cc1`, the outcome was “inactive; active”. With `CC(C)COC(=O)c1ccc(O)cc1`, the result was inactive.
